Experimental data reported in patent US12312370B2, “Immunoproteasome inhibitors” (Principia Biopharma Inc., priority 2017, dated 2025).

Key:
[1] = target: immunoproteasome LMP7/B5i subunit (Homo sapiens, UniProt P28062); test: Caliper-based proteasome enzymatic activity assay, LMP7; assay type: biochemical; conditions: human recombinant immunoproteasome 0.3 nM, FAM-labeled peptide substrate 1 μM, rt 3 h; read-out: LMP7 subunit IC50
[2] = target: constitutive proteasome β5c unit (Homo sapiens, UniProt P28074); test: Caliper-based proteasome enzymatic activity assay, β5c; assay type: biochemical; conditions: human recombinant constitutive proteasome 0.3 nM, FAM-labeled peptide substrate 1 μM, rt 3 h; read-out: β5c subunit IC50

IC50 [1] | IC50 [2] | Structure (SMILES)
0.0261 µM | 3.37 µM | CC1(C)CCN(C(C)(C)C=C(C#N)C(=O)N2CCC[C@H](OC(=O)N[C@@H](Cc3ccc(C(F)(F)F)cc3)B(O)O)C2)C1 [Example 69, ((R)-1-(((((S)-1-(2-cyano-4-(3,3-dimethylpyrrolidin-1-yl)-4-methylpent-2-enoyl)piperidin-3-yl)oxy)carbonyl)amino)-2-(4-(trifluoromethyl)phenyl)ethyl)boronic acid]
0.0035 µM | 0.621 µM | CC(C)(C=C(C#N)C(=O)N1C[C@H](OC(=O)N[C@@H](Cc2ccccc2)B(O)O)[C@@H](F)C1)N1CCC(F)(F)C1 [Example 109, ((R)-1-(((((3S,4S)-1-(2-cyano-4-(3,3-difluoropyrrolidin-1-yl)-4-methylpent-2-enoyl)-4-fluoropyrrolidin-3-yl)oxy)carbonyl)amino)-2-phenylethyl)boronic acid]
0.026 µM | 0.166 µM | CC(C)(C)C=C(C#N)C(=O)N1CCC[C@@H]1COC[C@H](NCC(F)(F)F)C(=O)N[C@@H](Cc1ccccc1)B(O)O [Example 24, (R)-1-((S)-3-(((R)-1-(2-cyano-4,4-dimethylpent-2-enoyl)pyrrolidin-2-yl)methoxy)-2-(2,2,2-trifluoroethylamino)propanamido)-2-phenylethylboronic acid]
0.249 µM | > 5 µM | C=CC(=O)N1CCC[C@H](OC(=O)N[C@@H](Cc2ccccc2)B(O)O)C1 [Example 67, ((R)-1-(((((S)-1-acryloylpiperidin-3-yl)oxy)carbonyl)amino)-2-phenylethyl)boronic acid]
0.0066 µM | 0.0148 µM | CC(C)C=C(C#N)C(=O)NCCCC[C@H](NC(=O)[C@@H](NC(=O)C(C)C)[C@@H](C)O)C(=O)N[C@@H](Cc1ccccc1)B(O)O [Example 10, ((R)-1-((S)-6-(2-cyano-4-methylpent-2-enamido)-2-((2S,3R)-3-hydroxy-2-isobutyramidobutanamido)hexanamido)-2-phenylethyl)boronic acid]
> 5 µM | > 5 µM | C=CC(=O)N1CCCC(C)(OC(=O)N[C@@H](Cc2ccc(F)cc2)B(O)O)C1 (mixture of isomers) [Example 91, ((1R)-1-((((1-acryloyl-3-methylpiperidin-3-yl)oxy)carbonyl)amino)-2-(4-fluorophenyl)ethyl)boronic acid]
0.0019 µM | 1.01 µM | CC(C)(C=C(C#N)C(=O)N1CCCC[C@@H](OC(=O)N[C@@H](Cc2ccccc2)B(O)O)C1)N1CC2CC(C1)O2 [Example 134, ((1R)-1-(((((3R)-1-(4-(6-oxa-3-azabicyclo[3.1.1]heptan-3-yl)-2-cyano-4-methylpent-2-enoyl)azepan-3-yl)oxy)carbonyl)amino)-2-phenylethyl)boronic acid]
0.206 µM | 3.56 µM | CC(C)(C=C(C#N)C(=O)N1CC[C@H](NC(=O)N[C@@H](Cc2ccccc2)B(O)O)C1)N1CCC(F)(F)C1 [Example 100, ((R)-1-(3-((S)-1-(2-cyano-4-(3,3-difluoropyrrolidin-1-yl)-4-methylpent-2-enoyl)pyrrolidin-3-yl)ureido)-2-phenylethyl)boronic acid]
0.0013 µM | 1.28 µM | CC1(C)CN(C(C)(C)C=C(C#N)C(=O)N2CCCC[C@@H](OC(=O)N[C@@H](Cc3ccccc3)B(O)O)C2)CCO1 [Example 136, ((R)-1-(((((R)-1-(2-cyano-4-(2,2-dimethylmorpholino)-4-methylpent-2-enoyl)azepan-3-yl)oxy)carbonyl)amino)-2-phenylethyl)boronic acid]
0.0021 µM | 1.67 µM | C[C@@H]1CN(C(C)(C)C=C(C#N)C(=O)N2C3CCC2(COC(=O)N[C@@H](Cc2ccccc2)B(O)O)CC3)C[C@H](C)O1 [Example 114, ((R)-1-((((7-(2-cyano-4-((2S,6R)-2,6-dimethylmorpholino)-4-methylpent-2-enoyl)-7-azabicyclo[2.2.1]heptan-1-yl)methoxy)carbonyl)amino)-2-phenylethyl)boronic acid]
0.0099 µM | 0.255 µM | CC(C)(C=C(C#N)C(=O)N1CCC[C@H](CC(=O)N[C@@H](Cc2ccccc2)B(O)O)C1)N1CCC(F)(F)C1 [Example 56, ((R)-1-(2-((R)-1-(2-cyano-4-(3,3-difluoropyrrolidin-1-yl)-4-methylpent-2-enoyl)piperidin-3-yl)acetamido)-2-phenylethyl)boronic acid]
0.0134 µM | 0.0211 µM | CC(C)C=C(C#N)C(=O)NCCCC[C@H](NS(C)(=O)=O)C(=O)N[C@@H](Cc1ccccc1)B(O)O [Example 12, ((R)-1-((S)-6-(2-cyano-4-methylpent-2-enamido)-2-(methylsulfonamido)hexanamido)-2-phenylethyl)boronic acid]
0.0022 µM | 3.18 µM | CC(C)(C=C(C#N)C(=O)N1CCCC[C@@H](OC(=O)N[C@@H](Cc2ccccc2)B(O)O)C1)N1CCOCC1 (single isomer, unassigned) [Example 103]
0.0056 µM | 2.5 µM | CC(C)(C=C(C#N)C(=O)N1CCC[C@H](OC(=O)N[C@@H](Cc2ccccc2)B(O)O)C1)N1CCN2C(=O)OC[C@H]2C1 [Example 98, ((R)-1-(((((S)-1-(2-cyano-4-methyl-4-((R)-3-oxotetrahydro-3H-oxazolo[3,4-a]pyrazin-2(1H)-yl)pent-2-enoyl)piperidin-3-yl)oxy)carbonyl)amino)-2-phenylethyl)boronic acid]
0.0211 µM | 4.03 µM | C=CC(=O)N1C2CCC1(COC(=O)N[C@@H](Cc1ccc(F)cc1)B(O)O)CC2 [Example 76, (R)-(1-((((7-acryloyl-7-azabicyclo[2.2.1]heptan-1-yl)methoxy)carbonyl)amino)-2-(4-fluorophenyl)ethyl)boronic acid]
0.0019 µM | 0.574 µM | CC(C)(C)/C=C(\C#N)C(=O)N1CC[C@H](OC(=O)N[C@@H](Cc2ccccc2)B(O)O)C1 [Example 87, ((R)-1-(((((S)-1-((E)-2-cyano-4,4-dimethylpent-2-enoyl)pyrrolidin-3-yl)oxy)carbonyl)amino)-2-phenylethyl)boronic acid]
0.0053 µM | 2.78 µM | CC(C)(C=C(C#N)C(=O)N1CCC[C@H](OC(=O)N[C@@H](Cc2ccccc2)B(O)O)C1)N1CCN(C2COC2)CC1 [Example 79]
0.0009 µM | 3.28 µM | CC(C)(C=C(C#N)C(=O)N1C2CCC1(COC(=O)N[C@@H](CCc1ccccc1)B(O)O)CC2)N1CCC(F)(F)C1 [Example 77, (R)-(1-((((7-(2-cyano-4-(3,3-difluoropyrrolidin-1-yl)-4-methylpent-2-enoyl)-7-azabicyclo[2.2.1]heptan-1-yl)methoxy)carbonyl)amino)-3-phenylpropyl)boronic acid]
0.0209 µM | 0.0121 µM | CC(C)C=C(C#N)C(=O)NCCCC[C@H](NC(=O)[C@H](C)NC(=O)C(C)C)C(=O)N[C@@H](CC(C)C)B(O)O [Example 1, ((R)-1-((S)-6-(2-cyano-4-methylpent-2-enamido)-2-((S)-2-isobutyramidopropanamido)hexanamido)-3-methylbutyl)boronic acid]
0.0027 µM | 0.734 µM | C[C@@H]1CN(C(C)(C)C=C(C#N)C(=O)N2CCCC[C@@H](OC(=O)N[C@@H](Cc3ccccc3)B(O)O)C2)C[C@@H](C)O1 [Example 129]
